Assay results from US9884806B2, “Cyclic vinylogous amides as bromodomain inhibitors” (ICAHN SCHOOL OF MEDICINE AT MOUNT SINAI, priority 2013, dated 2018).
Each block holds one compound with its values, some of them ahead of it.

Key:
BRD4_2 = biological target: T1, BRD4_2 (Homo sapiens, UniProt O60885); assay: Fluorescence anisotropy binding assay (competition with FITC-labeled MS417 probe), BRD4_2; settings: FITC-MS417 probe 80 nM, PBS pH 7.4, 1 hour, 25° C.
T1 construct: contains two tandem bromodomains (BrD1 and BrD2)

[1] = biological target: T2, first bromodomain (BrD1) of human BRD4 (Homo sapiens, UniProt O60885); assay: Fluorescence anisotropy binding assay (competition with FITC-labeled MS417 probe); settings: FITC-MS417 probe 80 nM, PBS pH 7.4, 1 hour, 25° C., read-out: BRD4_1 IC50
T2 construct: the first bromodomain (BrD1) of human BRD4; poly-His (cleaved yes); made in house
Procedure: Fluorescence Anisotropy Binding Assay
Expression and purification of the first bromodomain (BrD1) of human BRD4 in poly-His tag form was performed using a procedure described in the literature [See Zeng et al. Structure 16, 643-652 (2008) and Zhang et al., J Biol Chem 287, 28840-28851 (2012).] The protein was purified by using affinity chromatography on a nickel-IDA column (Invitrogen), followed by the removal of poly-His tag by thrombin cleavage.
Binding affinity of the newly synthesized compounds to the BRD4 BrD1 was assessed in a fluorescence anisotropy assay using a fluorescein isothiocyanate (FITC)-labeled MS417 as an assay probe (Zhang et al. 2008 op.cit.). Competition binding was performed with a BrD protein (0.25 to 1 μM) and the fluorescent probe (80 nM), and increasing concentration of unlabeled competing ligand in a PBS buffer (pH 7.4) in total volume of 80 μL. Measurements were obtained after 1 hour incubation of the fluorescent ligand and the protein at 25° C. with Safire 2 microplate reader (Tecan). In the assay, fluorescent ligand concentration was ≦2Kd, and protein concentration was set at which 50-80% of fluorescent ligand is bound. Dissociation constant of a competing ligand was calculated with the correction to Cheng-Prussoff equation introduced by Nicolovska-Coleska and colleagues [Nikolovska-Coleska, Z. et al., Anal Biochem 332, 261-273 (2004). Assuming one-site competitive binding model, the equation used to calculate Ki's from IC50 values recovered from fitting data using Prism:
[formula] where [I50] is the concentration of free inhibitor at 50% inhibition, [L50], the concentration of free labeled ligand at 50% inhibition, and [P0], concentration of free protein at 0% inhibition. Note that Kd for each protein-probe pair is the limit of resolvable Ki in a competition assay.

Compound: COc1ccc(NC(=O)c2ccc(NC3=C(C)C(=O)CC3)cc2OC)cc1 [Example 04-71, 2-methoxy-N-(4-methoxyphenyl)-4-((2-methyl-3-oxocyclopent-1-en-1-yl)amino)-benzamide]
IC50 (BRD4_2): 1 to 10 µM
IC50 [1]: 1 to 10 µM

Compound: COc1cc(NC2=C(C)C(=O)CC2)ccc1C(=O)Nc1ccccc1C [Example 04-72, 2-methoxy-4-((2-methyl-3-oxocyclopent-1-en-1-yl)amino)-N-(o-tolyl)benzamide]
IC50 (BRD4_2): 1 to 10 µM
IC50 [1]: < 1 µM

Compound: COc1cc(NC2=C(C)C(=O)CC2)ccc1C(=O)Nc1cccc(C)c1 [Example 04-73, 2-methoxy-4-((2-methyl-3-oxocyclopent-1-en-1-yl)amino)-N-(m-tolyl)benzamide]
IC50 (BRD4_2): 1 to 10 µM
IC50 [1]: 1 to 10 µM

Compound: COc1cc(NC2=C(C)C(=O)CC2)ccc1C(=O)Nc1ccc(C)cc1 [Example 04-74, 2-methoxy-4-((2-methyl-3-oxocyclopent-1-en-1-yl)amino)-N-(p-tolyl)benzamide]
IC50 (BRD4_2): 1 to 10 µM
IC50 [1]: 1 to 10 µM

Compound: CNC(=O)c1ccc(NC2=C(C)C(=O)CC2)c(C)c1 [Example 04-77, N,3-dimethyl-4-((2-methyl-3-oxocyclopent-1-en-1-yl)amino)benzamide]
IC50 (BRD4_2): > 10 µM
IC50 [1]: 1 to 10 µM

Compound: CC1=C(Nc2ccc(C(=O)NC3CCCCC3)cc2C)CCC1=O [Example 04-78, N-cyclohexyl-3-methyl-4-((2-methyl-3-oxocyclopent-1-en-1-yl)amino)benzamide]
IC50 (BRD4_2): 1 to 10 µM
IC50 [1]: 1 to 10 µM

Compound: CC1=C(Nc2ccc(C(=O)Nc3cccc4ccccc34)cc2C)CCC1=O [Example 04-79, 3-methyl-4-((2-methyl-3-oxocyclopent-1-en-1-yl)amino)-N-(naphthalen-1-yl)benzamide]
IC50 (BRD4_2): 1 to 10 µM
IC50 [1]: 1 to 10 µM

Compound: CC1=C(Nc2ccc(C(=O)Nc3ccccc3)cc2C)CCC1=O [Example 04-80, 3-methyl-4-((2-methyl-3-oxocyclopent-1-en-1-yl)amino)-N-phenylbenzamide]
IC50 (BRD4_2): 1 to 10 µM
IC50 [1]: 1 to 10 µM

Compound: COc1ccccc1NC(=O)c1ccc(NC2=C(C)C(=O)CC2)c(C)c1 [Example 04-81, N-(2-methoxyphenyl)-3-methyl-4-((2-methyl-3-oxocyclopent-1-en-1-yl)amino)-benzamide]
IC50 (BRD4_2): 1 to 10 µM
IC50 [1]: 1 to 10 µM

Compound: COc1cccc(NC(=O)c2ccc(NC3=C(C)C(=O)CC3)c(C)c2)c1 [Example 04-82, N-(3-methoxyphenyl)-3-methyl-4-((2-methyl-3-oxocyclopent-1-en-1-yl)amino)-benzamide]
IC50 (BRD4_2): 1 to 10 µM
IC50 [1]: 1 to 10 µM

Compound: COc1ccc(NC(=O)c2ccc(NC3=C(C)C(=O)CC3)c(C)c2)cc1 [Example 04-83, N-(4-methoxyphenyl)-3-methyl-4-((2-methyl-3-oxocyclopent-1-en-1-yl)amino)-benzamide]
IC50 (BRD4_2): 1 to 10 µM
IC50 [1]: 1 to 10 µM

Compound: CC1=C(Nc2ccc(C(=O)Nc3ccccc3C)cc2C)CCC1=O [Example 04-84, 3-methyl-4-((2-methyl-3-oxocyclopent-1-en-1-yl)amino)-N-(o-tolyl)benzamide]
IC50 (BRD4_2): 1 to 10 µM
IC50 [1]: 1 to 10 µM

Compound: CC1=C(Nc2ccc(C(=O)Nc3cccc(C)c3)cc2C)CCC1=O [Example 04-85, 3-methyl-4-((2-methyl-3-oxocyclopent-1-en-1-yl)amino)-N-(m-tolyl)benzamide]
IC50 (BRD4_2): 1 to 10 µM
IC50 [1]: 1 to 10 µM

Compound: CC1=C(Nc2ccc(C(=O)Nc3ccc(C)cc3)cc2C)CCC1=O [Example 04-86, 3-methyl-4-((2-methyl-3-oxocyclopent-1-en-1-yl)amino)-N-(p-tolyl)benzamide]
IC50 (BRD4_2): 1 to 10 µM
IC50 [1]: 1 to 10 µM

Compound: COC(=O)c1cccc(NC(=O)c2ccc(Cl)c(NC3=C(C)C(=O)CCC3)c2)c1C [Example 04-92, methyl 3-(4-chloro-3-((2-methyl-3-oxocyclohex-1-en-1-yl)amino)benzamido)-2-methylbenzoate]
IC50 (BRD4_2): > 10 µM
IC50 [1]: 1 to 10 µM

Compound: COC(=O)c1ccc(C)c(NC(=O)c2ccc(Cl)c(NC3=C(C)C(=O)CCC3)c2)c1 [Example 04-93, methyl 3-(4-chloro-3-((2-methyl-3-oxocyclohex-1-en-1-yl)amino)benzamido)-4-methylbenzoate]
IC50 (BRD4_2): 1 to 10 µM
IC50 [1]: 1 to 10 µM

Compound: CC1=C(Nc2cc(C(=O)Nc3cccc(C(=O)O)c3C)ccc2Cl)CCCC1=O [Example 04-95, 3-(4-chloro-3-((2-methyl-3-oxocyclohex-1-en-1-yl)amino)benzamido)-2-methylbenzoic acid]
IC50 (BRD4_2): > 10 µM
IC50 [1]: > 10 µM

Compound: CC1=C(Nc2cc(C(=O)Nc3cc(C(=O)O)ccc3C)ccc2Cl)CCCC1=O [Example 04-96, 3-(4-Chloro-3-((2-methyl-3-oxocyclohex-1-en-1-yl)amino)benzamido)-4-methylbenzoic acid]
IC50 (BRD4_2): > 10 µM
IC50 [1]: 1 to 10 µM

Compound: CC1=C(Nc2cc(C(=O)Nc3ccc(C(=O)O)cc3C)ccc2Cl)CCCC1=O [Example 04-97, 4-(4-chloro-3-((2-methyl-3-oxocyclohex-1-en-1-yl)amino)benzamido)-3-methylbenzoic acid]
IC50 (BRD4_2): > 10 µM
IC50 [1]: 1 to 10 µM

Compound: COc1ccc(NC(=O)Cc2ccc(NC3=C(C)C(=O)CCC3)cc2)cc1 [Example 04-99, N-(4-methoxyphenyl)-2-(4-((2-methyl-3-oxocyclohex-1-en-1-yl)amino)phenyl)-acetamide]
IC50 (BRD4_2): 1 to 10 µM
IC50 [1]: 1 to 10 µM

Compound: COc1ccc(NC(=O)c2cc(NC3=C(C)C(=O)CCC3)cc3ccccc23)cc1 [Example 04-105, N-(4-methoxyphenyl)-3-((2-methyl-3-oxocyclohex-1-en-1-yl)amino)-1-naphthamide]
IC50 (BRD4_2): 1 to 10 µM
IC50 [1]: < 1 µM

Other lines, results leading:

IC50 (BRD4_2): 1 to 10 µM
IC50 [1]: 1 to 10 µM
Compound: COC(=O)c1ccc(NC2=C(C)C(=O)CCC2)c(Cl)c1 [Example 05-12, methyl 3-chloro-4((2-methyl-3-oxocyclohex-1-en-1-yl)amino)benzoate]

IC50 (BRD4_2): 1 to 10 µM
IC50 [1]: < 1 µM
Compound: COc1ccccc1NC(=O)c1ccc(NC2=C(C)C(=O)CCC2)c(Cl)c1 [Example 05-14, 3-chloro-N-(2-methoxyphenyl)-4-((2-methyl-3-oxocyclohex-1-en-1-yl)amino)benzamide]

IC50 (BRD4_2): 1 to 10 µM
IC50 [1]: 1 to 10 µM
Compound: COc1ccc(NC(=O)c2ccc(NC3=C(C)C(=O)CC3)c(F)c2)cc1 [Example 05-17, 3-fluoro-N-(4-methoxyphenyl)-4-((2-methyl-3-oxocyclopent-1-en-1-yl)amino)benzamide]

IC50 (BRD4_2): 1 to 10 µM
IC50 [1]: < 1 µM
Compound: COc1ccc(NC(=O)c2ccc(NC3=C(C)C(=O)CC3)c(Br)c2)cc1 [Example 05-18, 3-bromo-N-(4-methoxyphenyl)-4-((2-methyl-3-oxocyclopent-1-en-1-yl)amino)benzamide]

IC50 (BRD4_2): > 10 µM
IC50 [1]: > 10 µM
Compound: N#CC1=C(Nc2cccc(Cl)c2)CCCC1=O [Example 05-32, 2-((3-chlorophenyl)amino)-6-oxocyclohex-1-enecarbonitrile]

IC50 (BRD4_2): > 10 µM
IC50 [1]: > 10 µM
Compound: N#CC1=C(Nc2cc(C(=O)O)ccc2Cl)CCCC1=O [Example 05-33, 4-chloro-3-((2-cyano-3-oxocyclohex-1-en-1-yl)amino)benzoic acid]

IC50 (BRD4_2): > 10 µM
IC50 [1]: > 10 µM
Compound: Cc1ccccc1NC(=O)c1ccc(Cl)c(NC2=C(C#N)C(=O)CCC2)c1 [Example 05-34, 4-chloro-3-((2-cyano-3-oxocyclohex-1-en-1-yl)amino)-N-(o-tolyl)benzamide]

IC50 (BRD4_2): > 10 µM
IC50 [1]: > 10 µM
Compound: COc1ccc(NC(=O)c2ccc(Cl)c(NC3=C(C#N)C(=O)CCC3)c2)cc1 [Example 05-35, 4-chloro-3-((2-cyano-3-oxocyclohex-1-en-1-yl)amino)-N-(4-methoxyphenyl)benzamide]

IC50 (BRD4_2): > 10 µM
IC50 [1]: > 10 µM
Compound: COc1ccc(NC(=O)c2ccc(Cl)c(NC3=C(C#N)C(=O)CCC3)c2)c(C)c1 [Example 05-36, 4-chloro-3-((2-cyano-3-oxocyclohex-1-en-1-yl)amino)-N-(4-methoxy-2-methylphenyl)benzamide]

IC50 (BRD4_2): > 10 µM
IC50 [1]: 1 to 10 µM
Compound: CC1=C(Nc2cccc(NC(=O)c3ccccc3C)c2Cl)CCCC1=O [Example 05-50, N-(2-chloro-3-((2-methyl-3-oxocyclohex-1-en-1-yl)amino)phenyl)-2-methylbenzamide]

IC50 (BRD4_2): < 1 µM
IC50 [1]: < 1 µM
Compound: CC1=C(Nc2cc(NS(=O)(=O)c3ccccc3Cl)ccc2Cl)CCC1=O [Example 05-56, N-(4-chloro-3-((2-methyl-3-oxocyclopent-1-en-1-yl)amino)-phenyl)-2-chlorobenzenesulfonamide]

IC50 (BRD4_2): 1 to 10 µM
IC50 [1]: < 1 µM
Compound: CC1=C(Nc2cccc(NS(=O)(=O)C3CCCCC3)c2Cl)CCCC1=O [Example 05-71, N-(2-chloro-3-((2-methyl-3-oxocyclohex-1-en-1-yl)amino)phenyl)-cyclohexanesulfonamide]
